Data published in the supplement of paper PMC13380429.
± gives the standard deviation of the averaged measurements.

What was measured:
Settings in all cases: 72 h
[1] = tested on: Caco-2; assay: drug sensitivity score (DSS) for viability; higher = more toxic; extreme values may be limits of the assay
[2] = tested on: Vero E6; assay: as above
[3] = tested on: Calu-3; assay: as above
[4] = tested on: HepG2; assay: as above
[5] = tested on: U2OS; assay: as above
[6] = tested on: Caco-2; assay: relative viability EC50 (midpoint between 100% and the lowest measured viability); higher = less toxic
[7] = tested on: Vero E6; assay: as above
[8] = tested on: Calu-3; assay: as above
[9] = tested on: HepG2; assay: as above
[10] = tested on: U2OS; assay: as above
[11] = tested on: Caco-2; assay: cell viability relative to DMSO; higher = less toxic
[12] = tested on: Vero E6; assay: as above
[13] = tested on: Calu-3; assay: as above
[14] = tested on: HepG2; assay: as above
[15] = tested on: U2OS; assay: as above

Row | Compound | drug sensitivity score [1] | drug sensitivity score [2] | drug sensitivity score [3] | drug sensitivity score [4] | drug sensitivity score [5] | relative viability EC50 [6] | relative viability EC50 [7] | relative viability EC50 [8] | relative viability EC50 [9] | relative viability EC50 [10] | cell viability ([11]; 1 nM) | cell viability ([11]; 10 nM) | cell viability ([11]; 100 nM) | cell viability ([11]; 1000 nM) | cell viability ([11]; 10000 nM) | cell viability ([12]; 1 nM) | cell viability ([12]; 10 nM) | cell viability ([12]; 100 nM) | cell viability ([12]; 1000 nM) | cell viability ([12]; 10000 nM) | cell viability ([13]; 1 nM) | cell viability ([13]; 10 nM) | cell viability ([13]; 100 nM) | cell viability ([13]; 1000 nM) | cell viability ([13]; 10000 nM) | cell viability ([14]; 1 nM) | cell viability ([14]; 10 nM) | cell viability ([14]; 100 nM) | cell viability ([14]; 1000 nM) | cell viability ([14]; 10000 nM) | cell viability ([15]; 1 nM) | cell viability ([15]; 10 nM) | cell viability ([15]; 100 nM) | cell viability ([15]; 1000 nM) | cell viability ([15]; 10000 nM)
1 | CNC(=O)O[C@H]1COc2ccc(N3CCN(C4COC4)CC3)cc2[C@@H]1NC(=O)c1ccc(F)cc1 | 0 | 0 | 0 | 0 | 0 | > 10 µM | > 10 µM | > 10 µM | > 10 µM | > 10 µM | 90.5% | 103% | 89.9% | 101% | 98.5% | 101% | 98.2% | 106% | 104% | 94.1% | 106% | 88.4% | 92.1% | 95.4% | 101% | 94.9% | 101% | 94.4% | 105% | 91.8% | 96.6% | 101% | 95.7% | 104% | 102%
2 | Cc1cc(N2CCOCC2)cc2[nH]c(-c3c(NC[C@@H](O)c4cccc(Cl)c4)cc[nH]c3=O)nc12 | 6.2 | 4.3 | 6 | 10.1 | 7.6 | 1.16 µM | 1.75 µM | 1.44 µM | 0.45 µM | 1.45 µM | 102% | 93.9% | 99.4% | 76.8% | 43% | 89.3% | 101% | 90.6% | 90.2% | 49.9% | 89.8% | 102% | 96.7% | 81.9% | 38.3% | 101% | 101% | 80.2% | 58.8% | 31.2% | 97.2% | 97.2% | 95.9% | 78% | 22.5%
3 | Cc1cccc(NC(=O)c2ccc(C(F)(F)F)cc2C(=O)O)n1 | 0 | 0 | 0 | 0 | 0 | > 10 µM | > 10 µM | > 10 µM | > 10 µM | > 10 µM | 99.5% | 101% | 101% | 98% | 105% | 99.7% | 99.8% | 105% | 104% | 106% | 103% | 95% | 94.5% | 106% | 98.6% | 103% | 96.8% | 105% | 108% | 102% | 100% | 102% | 97% | 97% | 104%
4 | N#Cc1cccc(-c2c[nH]c3ncnc(N4CCOCC4)c23)c1 | 0 | 0 | 0 | 0 | 0 | > 10 µM | > 10 µM | > 10 µM | > 10 µM | > 10 µM | 104% | 98.2% | 105% | 107% | 118% | 98.1% | 96% | 98.9% | 97.7% | 95.9% | 99% | 104% | 103% | 99.6% | 115% | 89.8% | 99.8% | 102% | 105% | 106% | 106% | 99.2% | 102% | 98.5% | 105%
5 | CCOc1ccc(-n2c([C@@H](C)N(Cc3cccnc3)C(=O)Cc3ccc(F)c(C(F)(F)F)c3)nc3ncccc3c2=O)cc1 (racemic) | 0 | 0 | 0 | 0 | 0 | > 10 µM | > 10 µM | > 10 µM | > 10 µM | > 10 µM | 103% | 97.6% | 99.3% | 99.9% | 90% | 96% | 97.2% | 98.6% | 103% | 105% | 93.8% | 91% | 92.8% | 95.2% | 88.4% | 105% | 100% | 97.9% | 108% | 93.7% | 104% | 96% | 96.2% | 99.2% | 95.9%
6 | O=C1CC2(CCCC2)CC(=O)N1CCCCNC[C@H]1COc2ccccc2O1 (racemic) | 0.3 | 0 | 0.3 | 0 | 0 | > 10 µM | > 10 µM | > 10 µM | > 10 µM | > 10 µM | 97.8% | 98.2% | 93.8% | 98.3% | 86% | 103% | 101% | 101% | 97% | 98.6% | 96.9% | 103% | 96.9% | 94.2% | 85.3% | 99% | 112% | 106% | 101% | 110% | 104% | 102% | 101% | 104% | 97.8%
7 | CCOc1ccc(-n2c([C@@H](C)N(Cc3cccnc3)C(=O)Cc3ccc(OC(F)(F)F)cc3)nc3ncccc3c2=O)cc1 (racemic) [AMG-487-(+/-)] | 0 | 0 | 0.05 ± 0.071 | 0.45 ± 0.64 | 0 | > 10 µM | > 10 µM | > 10 µM | > 10 µM | > 10 µM | 94 ± 2.5% | 98.2 ± 13% | 98.5 ± 2% | 101 ± 6% | 94.5 ± 8.4% | 97.8 ± 3.2% | 102 ± 3.9% | 101 ± 2.5% | 97.8 ± 0.57% | 102 ± 2.5% | 100.8 ± 0.57% | 99.7 ± 0.99% | 93.3 ± 2.7% | 92.1 ± 3.4% | 98.5 ± 6% | 99.7 ± 1.1% | 98 ± 11% | 97.5 ± 8.5% | 95.2 ± 4.5% | 94 ± 13% | 100.5 ± 0.35% | 101 ± 4% | 97.3 ± 1.7% | 98.6 ± 0.85% | 99.6 ± 1.7%
8 | O=c1[nH]c(=O)n([C@H]2CCCO2)cc1F (racemic) [ftorafur] | 0 | 0 | 0 | 0 | 0 | > 10 µM | > 10 µM | > 10 µM | > 10 µM | > 10 µM | 93.5% | 103% | 106% | 90.7% | 100% | 96.1% | 103% | 91.2% | 102% | 108% | 96.5% | 95.2% | 93.9% | 94.4% | 99.2% | 87.2% | 111% | 91.5% | 110% | 113% | 99% | 95.9% | 102% | 98.1% | 105%
9 | CC1(C)[C@@H]2C[C@@H](O)[C@@](C)(O)[C@H]1C2 [2,3-cis/exo-pinanediol] | 0 | 0 | 0 | 0 | 0 | > 10 µM | > 10 µM | > 10 µM | > 10 µM | > 10 µM | 103% | 101% | 97.2% | 108% | 87.2% | 100% | 99.9% | 99.3% | 93.1% | 100% | 106% | 98.1% | 102% | 106% | 103% | 100% | 110% | 104% | 93.9% | 108% | 96.1% | 97.3% | 95.7% | 100% | 97.3%
10 | Nc1ccccc1S(N)(=O)=O [2-aminobenzenesulfonamide] | 0 | 0 | 0.4 | 0 | 0 | > 10 µM | > 10 µM | > 10 µM | > 10 µM | > 10 µM | 95.3% | 99.4% | 99.4% | 95.5% | 101% | 99.5% | 98.2% | 101% | 98.9% | 93.7% | 90.9% | 108% | 101% | 104% | 80.5% | 99% | 99.5% | 87.1% | 94.1% | 102% | 103% | 105% | 96.8% | 98.4% | 90.5%
11 | NC(=O)c1cccc(N)c1 [3-amino-benzamide] | 0 | 0 | 0 | 0 | 0 | > 10 µM | > 10 µM | > 10 µM | > 10 µM | > 10 µM | 98.4% | 96.2% | 93.3% | 89% | 96.8% | 95.7% | 102% | 102% | 102% | 103% | 106% | 111% | 102% | 103% | 97.2% | 104% | 81.8% | 107% | 101% | 99.8% | 99.8% | 106% | 98.3% | 104% | 98.9%
